Measurements published in article PMC6718946 (Toxicology Reports, 2019).
pIC50, pKi: −log10 of the molar value. “And” between values parts separate entries of the source, which are not always exact repeats. Identical values can stand only once. Like-named read-outs stand apart in the source and are kept apart here.

Legend:
[1] = system: AChE; conditions: cited from earlier work
[2] = system: Artemia salina; assay: Toxicology assay on Artemia salina model; conditions: for Mortality of A. salina: 24 h
[3] = target: acetylcholinesterase (AChE) (Electrophorus electricus, UniProt O42275); conditions: for pIC50 / IC50: estimated from Fig. 1; for pIC50: 30 °C, pH 8.0, 1.25% DMSO
[4] = system: AChE; conditions: cited from earlier work; remark: listed apart in the source
[5] = system: AChE; conditions: cited from earlier work; remark: listed apart in the source
[6] = system: Artemia salina; conditions: in vivo; cited from earlier work

acetylcholinesterase (AChE), sequence (O42275 24-633): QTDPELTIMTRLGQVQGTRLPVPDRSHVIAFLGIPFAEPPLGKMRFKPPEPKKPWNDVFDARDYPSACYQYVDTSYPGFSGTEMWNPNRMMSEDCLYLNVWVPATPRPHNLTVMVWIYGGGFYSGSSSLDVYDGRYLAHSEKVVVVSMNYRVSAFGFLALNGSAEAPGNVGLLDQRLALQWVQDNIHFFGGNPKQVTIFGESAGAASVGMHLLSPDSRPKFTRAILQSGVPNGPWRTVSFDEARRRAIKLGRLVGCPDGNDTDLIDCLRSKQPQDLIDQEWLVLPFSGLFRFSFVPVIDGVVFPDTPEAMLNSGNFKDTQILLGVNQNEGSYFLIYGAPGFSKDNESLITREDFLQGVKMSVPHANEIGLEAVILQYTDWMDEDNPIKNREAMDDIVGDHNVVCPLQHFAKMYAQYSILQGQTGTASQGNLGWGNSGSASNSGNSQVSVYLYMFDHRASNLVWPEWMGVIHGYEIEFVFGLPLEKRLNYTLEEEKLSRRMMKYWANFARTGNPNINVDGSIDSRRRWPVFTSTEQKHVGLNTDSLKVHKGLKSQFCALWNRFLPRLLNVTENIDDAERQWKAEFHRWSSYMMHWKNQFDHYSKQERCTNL

Question: For `C=C(C)C1CC=C(C)C(=O)C1` (centres unmarked) [S-carvone], which Inhibition mechanism [1] is on record?
Answer: The Inhibition mechanism was “mixed AChE inhibition”.

Question: For `CC12CCC(CC1=O)C2(C)C` (centres unmarked) [camphor], which Inhibition mechanism [1] is on record?
Answer: The Inhibition mechanism was “mixed AChE inhibition”.

Question: For `C=CCNC(=O)N1C[C@H]2C[C@H](C1)c1cccc(=O)n1C2` [Compound A-63, N-Allylcytisine-12-carbamide], which “Mortality of A. salina” value ([2]; at 1000 ppm) is on record?
Answer: The value was 3%.

Question: And the “Mortality of A. salina” value ([2]; at 2000 ppm)?
Answer: The value was 3%.

Question: What about the “Toxicity classification according to Artemia salina test” value ([2]; class by percent mortality of nauplii) of the same molecule?
Answer: The value was “non-toxic (0–10% non-toxic compound)”.

Question: What about the “Effect on A. salina viability” value ([2]; concentration less than 1000 ppm) of the same molecule?
Answer: The value was “did not affect”.

Question: What about the “Effect on A. salina viability” value ([2]; concentration less than 2000 ppm) of the same molecule?
Answer: The value was “not affected”.

Question: And the “Inhibition mechanism” value ([3]; Lineweaver-Burk analysis)?
Answer: Its value is “mixed”.

Question: What about the “Inhibition mechanism” value ([3]; Lineweaver-Burk analysis, listed as A63) of the same molecule?
Answer: The value was “Mixed inhibition”.

Question: And the pIC50 [3]?
Answer: Its pIC50 is ~2.83 and 2.83.

Question: And the IC50 ([3]; expressed in g L^−1)?
Answer: Its IC50 is “≈ 0.4 g L^−1”.

Question: And the IC50 ([3]; expressed in ppm)?
Answer: The IC50 was 400 ppm.

Question: And the “α´ (effect on Vmax)” value ([3]; mixed inhibition parameter)?
Answer: Its value is 0.05.

Question: Which “Inhibition mechanism” value ([3]; Lineweaver-Burk analysis) does the source give for “1-Hydroxyquinopimaric acid [Compound U-201]” here?
Answer: Its value is “Competitive”.

Question: With Cytisine-12-carbamide [Compound A-36] as the molecule, how does the “Inhibition mechanism” value ([3]; Lineweaver-Burk analysis) read?
Answer: Its value is “Competitive”.

Question: Which Inhibition mechanism [4] does the source give for `COc1ccc2c3c1O[C@H]1C[C@@H](O)C=C[C@@]31CCN(C)C2` [galanthamine] here?
Answer: The Inhibition mechanism was “competitive”.

Question: With `C[n+]1c2ccccc2cc2ccccc21` [N-methylacridinium] as the molecule, how does the Inhibition mechanism [5] read?
Answer: Its Inhibition mechanism is “competitive”.

Question: Which Inhibition mechanism [5] does the source give for `CC[N+](C)(C)c1cccc(O)c1` [edrophonium] here?
Answer: The Inhibition mechanism was “competitive”.

Question: With `C=CCc1ccc(OC)cc1` [estragole] as the molecule, how does the Inhibition mechanism [1] read?
Answer: Its Inhibition mechanism is “mixed AChE inhibition”.

Question: Which results are given for `CNC(=O)Oc1ccc2c(c1)[C@]1(C)CCN(C)[C@@H]1N2C` [Eserine]?
Answer: Effect on larvae [6]: larval paralysis; Inhibition of AChE activity in Artemia salina [6]: strongly inhibit

Question: Which “Inhibition mechanism” value ([3]; Lineweaver-Burk analysis) does the source give for `O=c1cccc2n1CC1CC2CN(C(=S)NC23CC4CC(CC(C4)C2)C3)C1` (centres unmarked) [Compound U-12, N-1-Adamantylcytisine-12-thiocarbamide] here?
Answer: Its value is “Uncompetitive”.

Question: And the pIC50 [3]?
Answer: Its pIC50 is ~2.47 and 2.47.

Question: And the IC50 ([3]; expressed in g L^−1)?
Answer: The IC50 was “≈ 1.4 g L^−1”.

Question: And the IC50 ([3]; expressed in ppm)?
Answer: The IC50 was 1400 ppm.

Question: And the pKi ([3]; read-out: Ki (inhibition constant), Lineweaver-Burk analysis)?
Answer: Its pKi is 4.15.
